How the values were obtained:
[1] = system: C. glabrata; assay: Mature biofilm cell survival, serial dilution plating on YPD; type: cell-based, Candida glabrata; settings: 0.2 and 0.5 g/ml, 5 h of incubation, 37° C
Description: The plated cells were incubated for 24 h at 37° C. and visually analyzed. The cells from the mature biofilm treated with water were used as a control. […] At the concentrations of 0.2 and 0.5 g/ml after 5 h of incubation the cell viability was decreased by about 100 times for both C. albicans and C. glabrata.

[2] = system: Gardnerella vaginalis CCUG 3717; assay: MIC microdilution test; type: cell-based; settings: CAMHB, 48 hours, 5% CO2
Description: (§1) Gardnerella vaginalis, Lactobacillus iners, and Lactobacillus crispatus were recovered by CCUG (Culture Collection of University of Gothenburg). Subculture plates were made for G. vaginalis on Chocolate-GL plates and Lactobacillus spp. on M.R.S. agar plates at 5% CO2, 36° C. The inoculums were prepared from the subculture plates. Colonies were inoculated to culture tubes with 5 ml test medium and vortexed 2 min with about 10 glass beads a 3 mm in diameter. Colonies were taken until the turbidity of the solution was OD475 of 0.4-0.5. The bacterial solutions were checked in light microscopy at ×40 with phase contrast to make sure that the cells were dispersed. Each bacterial suspension was diluted in its test medium, 1:100, to equal 1-3×10^6 CFU/ml. The microbial solutions were stored at 20° C. during the preparation of the inoculums
(§2) The test substance solution was prepared aseptically at 1 g/ml in sterile H2O. The first row of wells was filled with 100 μl substance and then 2 fold dilutions were done vertically in 8 steps.
(§3) Next, 100 μl microorganisms were added and the plates were gently shaken at 500 rpm for 30 seconds before incubation at 35° C. and 90% RH in the CO2 incubator set at 5% CO2. After 48 and 72 hours of incubation, the OD was measured and ocular assessments were done. The pH was also measured for all dilutions, n=1, pH=6.8-7.1

[3] = system: Lactobacillus crispatus CCUG 44128; assay: MIC microdilution test; type: cell-based; settings: IsoS-M.R.S., 48 hours, 5% CO2
Description: as §1, §2, §3

[4] = system: C. albicans; assay: Viability of mature biofilm, XTT assay; type: cell-based, Candida albicans; settings: 48 h of incubation with GDA
Description: (§4) XXT is a colorimetric assay for quantification of cellular viability, and cytotoxicity. The assay is based on the cleavage of the tetrazolium salt XTT, a conversion that only occurs in viable cells. […] Then the cells were washed 2 times with PBS, after which the XTT reaction mixture was added. After 30 min the optical density measured at 485 nm.

[5] = system: C. albicans; assay: Microfluidics study of biofilm development (cell morphology); type: cell-based, Candida albicans; settings: 1 h hydrolysate of 2.5 g pellet diluted 50 times, after 5 h
Description: To monitor the C. albicans cell morphology we studied the biofilm development also using microscopy and microfluidics. After the yeast cells were inoculated, hyphae started to form within first hour of incubation in the biofilm medium (YNB supplemented with 100 mM proline and 0.2% glucose, pH7.0). […] A sample was taken after 1 h and diluted 50 times with biofilm medium and added to C. albicans.

[6] = system: Lactobacillus iners CCUG 44025; assay: MIC microdilution test; type: cell-based; settings: CAMHB, anaerobic conditions, 120 hours
Description: as §1, §2
The pH was also measured for all dilutions, n=1, pH=6.8-7.1

[7] = system: Candida albicans; assay: Biofilm formation in a model of in vivo conditions (pellet release in pH 3.71 buffer); type: cell-based
Description: (§5) Biofilm was measured in liquid culture as described [K. Scherz et al., G3 (Bethesda), 2014, 4, 1671-1680. I. Serrano-Fujarte et al. Biomed Res Int. 2015; 2015:783639] with some modifications. Prior the biofilm assay, yeast cultures were grown in liquid YPD medium for 24 hours until stationary phase (OD600 11-17)^2, cells were then pelleted by centrifugation (1699 g), washed with sterile water and cells were further inoculated into test biofilm medium (YNB (yeast nitrogen base without amino acids and ammonium sulphate) supplemented with 0.5% ammonium sulphate, 0.2% glucose and 100 mM L-proline pH7.0) at final concentration 0.2 OD600/ml and incubated in 96-well flat-bottom polystyrene microtiter plates (Sigma Aldrich, Corning® Costar® culture plates, CLS3596-50EA) for 72 hours at 37° C. thermostat. At defined time points crystal violet (HT901-8FOZ; Sigma Aldrich) was added to the media at the final concentration 0.05%, in addition total biomass was measured. After 24 hours of cells staining, plate wells were washed four times with 200 μl of water to remove planktonic cells, biofilms were then dried and dissolved in 200 μl of 96% ethanol. Total biomass and crystal violet biofilm staining measurements were performed at OD560 with FLUOstar OPTIMA plate reader, BMG LABTECH. Crystal violet biofilm measurements were normalized to the total biomass (OD560Biofilm/OD560 total biomass).
(§6) Pellet of lactonized/oligomerized gluconic acid (1.3 g, duplicate samples) were added to buffer solution of pH 3.71 (0.5 M KH2PO/ortho phosphoric acid, 10 mL) at 37° C. Samples (4 mL) were taken every hour (1, 2, 3, 4, 5, 6 and 24 h) and new buffer solution (4 mL) was added. The samples were diluted 50 times with biofilm medium (vide supra) and the amount of biofilm formation was measured after 24 h as described above. […]
(§7) Samples (4 mL) were taken at fixed time points (1, 2, 3, 4, 5, 6 and 24 h) and new buffer solution (4 mL) was added. The samples were diluted 50 times with biofilm medium (vide supra) and the amount of biofilm formation was measured after 24 h as described above. […]

[8] = system: Candida glabrata; assay: as above; type: cell-based; settings: pellet 2.5 g in pH 3.71 buffer at 37° C, sample after 1 h, diluted 50 times, biofilm after 24 h
Description: as §5, §6, §7

[9] = system: C. glabrata; assay: Viability of mature biofilm, XTT assay; type: cell-based, Candida glabrata; settings: 24 h of incubation with GDA
Description: as §4

O=C1O[C@H](CO)[C@@H](O)[C@H](O)[C@H]1O [GDA, glucono-δ-lactone]
decrease of cell viability [1]: about 100 times
MIC (g/ml) [2]: 0.001 g/ml
MIC (g/ml) [3]: 0.0078 g/ml
decrease in viability of mature biofilm (XTT) [4]: clearly seen
cell morphology [5]: most treated cells were planctonic
MIC (g/ml) [6]: 0.0078 g/ml
Normalized biofilm (% of control), 1 h ([7]; pellet 2.5 g in pH 3.71 buffer at 37° C, sample after 1 h, diluted 50 times, biofilm after 24 h): 8.3 % of control
duration of preventive effect on biofilm formation from pellet hydrolysis ([7]; pellet in pH 3.71 buffer, samples 1-24 h diluted 50 times): ≥ 24 h
Normalized biofilm (% of control), 1 h [8]: 71 % of control
decrease in viability of mature biofilm (XTT) [9]: strong decrease in viability

Source: patent US12226396B2, “Gluconic acid derivatives for use in the treatment and/or prevention of microbial infections” (GEDEA BIOTECH AB, priority 2017, dated 2025)
